Measured values from ChEMBL document CHEMBL4808208, “Hepatoselective Dihydroquinolizinone Bis-acids for HBsAg mRNA Degradation” (ACS Med Chem Lett, 2021).
pEC50: −log10 of the molar value. Active and inactive are the calls of the source. The calls are words filed in the database; no cut-off is given here.

Legend:
Hepatitis B virus [1] = experiment: Antiviral activity against Hepatitis B virus infected in human HepG2.2.15 cells assessed as reduction in HBsAg level measured after 4 days by AlphaLisa assay; format: functional, organism-based; settings: HepG2.2.15, 96 h
[2] = Cytotoxicity against human HepG2.2.15 cells assessed as reduction in cell viability measured after 4 days by CellTiter-Glo reagent based assay; set-up: species or system HepG2 2.2.15; settings: time 4 day
[3] = 1-Octanol/saturated PBS buffer distribution coefficient, logD of the compound incubated for 1 hr by LC-MS/MS analysis; format: physicochemical
[4] = Apparent permeability across apical to basolateral side in MDCK-MDR1 cells at 1 uM measured after 120 mins by LC-MS/MS analysis; format: ADME, cell-based, Canis lupus familiaris; settings: dog
[5] = Efflux ratio of apparent permeability in MDCK-MDR1 cells at 1 uM after 120 mins by LC-MS/MS analysis; format: ADME, cell-based, Canis lupus familiaris; settings: dog
[6] = molecular target: Terminal nucleotidyltransferase 4B (Homo sapiens) (UniProt Q8NDF8); experiment: Inhibition of Myc-DDK-tagged human PAPD5 expressed in HEK293 cells assessed as inhibition of poly-adenylation reaction using P32-labeled RNA oligonucleotides (5'-GCCUUUCAUCUCUAACUGCGAAAAAAAAAA-3') as substrate measured for 20 mins by phosphor imaging analysis; settings: dose 0.37-10 µM
[7] = Apparent permeability across basolateral to apical side in MDCK-MDR1 cells at 1 uM measured after 120 mins by LC-MS/MS analysis; format: ADME, cell-based, Canis lupus familiaris; settings: dog
[8] = molecular target: T1, Solute carrier organic anion transporter family member 1B1 (Homo sapiens, UniProt Q9Y6L6); experiment: Substrate activity at OATP1B1 (unknown origin) expressed in HEK293 cells assessed as ratio of drug uptake in absence of transporter inhibitor,estradiol-17beta-glucuronide to drug uptake in presence of transporter inhibitor, estradiol-17beta-glucuronide by LC-MS/MS analysis; format: ADME, cell-based
T1 sequence (Q9Y6L6 whole entry): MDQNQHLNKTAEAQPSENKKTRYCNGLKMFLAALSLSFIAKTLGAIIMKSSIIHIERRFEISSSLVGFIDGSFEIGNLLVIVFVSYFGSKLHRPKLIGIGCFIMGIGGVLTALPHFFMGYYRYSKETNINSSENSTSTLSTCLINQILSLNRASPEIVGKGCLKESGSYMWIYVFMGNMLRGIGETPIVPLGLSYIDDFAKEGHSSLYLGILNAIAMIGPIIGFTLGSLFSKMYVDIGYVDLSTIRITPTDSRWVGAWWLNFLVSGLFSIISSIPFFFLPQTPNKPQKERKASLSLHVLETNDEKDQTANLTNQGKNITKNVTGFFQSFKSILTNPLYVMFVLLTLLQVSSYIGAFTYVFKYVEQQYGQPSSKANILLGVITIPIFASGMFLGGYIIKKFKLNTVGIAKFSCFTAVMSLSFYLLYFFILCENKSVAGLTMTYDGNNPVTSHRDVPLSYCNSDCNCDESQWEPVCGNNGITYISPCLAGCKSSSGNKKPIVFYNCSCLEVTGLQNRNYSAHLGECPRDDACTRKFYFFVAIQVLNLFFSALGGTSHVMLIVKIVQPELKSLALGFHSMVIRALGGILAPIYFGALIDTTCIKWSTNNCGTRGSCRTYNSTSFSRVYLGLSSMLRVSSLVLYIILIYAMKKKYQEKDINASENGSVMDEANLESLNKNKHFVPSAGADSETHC

OATP1B3 = experiment: Ratio of drug uptake in HEK293 cells transfected with OATP1B3 (unknown origin) in absence of transporter inhibitor, estradiol-17beta-glucuronide to drug uptake in HEK293 cells in absence of transporter inhibitor, estradiol-17beta-glucuronide by LC-MS/MS analysis; format: ADME, cell-based; settings: human, HEK293 cells transfected with OATP1B3 versus HEK293 cells
OATP1B1 = experiment: Ratio of drug uptake in HEK293 cells transfected with OATP1B1 (unknown origin) in absence of transporter inhibitor, estradiol-17beta-glucuronide to drug uptake in HEK293 cells in absence of transporter inhibitor, estradiol-17beta-glucuronide by LC-MS/MS analysis; format: ADME, cell-based; settings: human, HEK293 cells transfected with OATP1B1 versus HEK293 cells
[9] = molecular target: Terminal nucleotidyltransferase 4A (Homo sapiens) (UniProt Q5XG87); experiment: Inhibition of human PAPD7 expressed in HEK293 cells assessed as inhibition of poly-adenylation reaction using P32-labeled RNA oligonucleotides (5'-GCCUUUCAUCUCUAACUGCGAAAAAAAAAA-3') as substrate measured for 3 hrs by phosphor imaging analysis; format: cell-based; settings: dose 0.37-10 µM
[10] = molecular target: T2, Solute carrier organic anion transporter family member 1B3 (Homo sapiens, UniProt Q9NPD5); experiment: Substrate activity at OATP1B3 (unknown origin) expressed in HEK293 cells assessed as ratio of drug uptake in absence of transporter inhibitor, estradiol-17beta-glucuronide to drug uptake in presence of transporter inhibitor, estradiol-17beta-glucuronide by LC-MS/MS analysis; format: ADME, cell-based
T2 sequence (Q9NPD5 whole entry): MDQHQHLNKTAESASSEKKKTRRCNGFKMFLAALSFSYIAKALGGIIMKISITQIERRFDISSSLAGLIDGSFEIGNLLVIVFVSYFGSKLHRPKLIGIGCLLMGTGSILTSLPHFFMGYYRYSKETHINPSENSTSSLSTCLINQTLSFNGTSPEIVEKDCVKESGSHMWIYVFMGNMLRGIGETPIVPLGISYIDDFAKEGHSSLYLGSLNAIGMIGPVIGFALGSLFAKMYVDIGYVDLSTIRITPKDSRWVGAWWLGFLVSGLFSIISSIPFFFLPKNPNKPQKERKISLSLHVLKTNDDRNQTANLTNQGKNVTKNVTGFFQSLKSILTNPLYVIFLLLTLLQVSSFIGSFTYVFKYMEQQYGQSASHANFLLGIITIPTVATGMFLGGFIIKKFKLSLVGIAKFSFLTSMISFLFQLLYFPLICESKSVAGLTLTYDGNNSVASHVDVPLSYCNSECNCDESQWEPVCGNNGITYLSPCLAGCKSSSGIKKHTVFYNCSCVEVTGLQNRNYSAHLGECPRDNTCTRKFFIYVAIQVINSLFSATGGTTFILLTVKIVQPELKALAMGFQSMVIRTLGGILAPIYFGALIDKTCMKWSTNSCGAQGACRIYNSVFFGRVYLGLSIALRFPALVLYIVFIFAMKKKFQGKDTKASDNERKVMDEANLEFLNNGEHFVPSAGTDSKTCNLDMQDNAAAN

Hepatitis B virus [11] = experiment: Antiviral activity against Hepatitis B virus infected in human HepG2.2.15 cells assessed as reduction in HBV pregenomic mRNA level at 1 uM measured after 5 days by Northern blot analysis; format: functional, organism-based; settings: time 5.0 day
Hepatitis B virus [12] = experiment: Antiviral activity against Hepatitis B virus infected in human HepG2.2.15 cells assessed as reduction in HBV subgenomic 2.4/2.1 kb mRNA level at 1 uM measured after 5 days by Northern blot analysis; format: functional, organism-based; settings: time 5.0 day

Sequence of Terminal nucleotidyltransferase 4B (Homo sapiens) (Q8NDF8 whole entry): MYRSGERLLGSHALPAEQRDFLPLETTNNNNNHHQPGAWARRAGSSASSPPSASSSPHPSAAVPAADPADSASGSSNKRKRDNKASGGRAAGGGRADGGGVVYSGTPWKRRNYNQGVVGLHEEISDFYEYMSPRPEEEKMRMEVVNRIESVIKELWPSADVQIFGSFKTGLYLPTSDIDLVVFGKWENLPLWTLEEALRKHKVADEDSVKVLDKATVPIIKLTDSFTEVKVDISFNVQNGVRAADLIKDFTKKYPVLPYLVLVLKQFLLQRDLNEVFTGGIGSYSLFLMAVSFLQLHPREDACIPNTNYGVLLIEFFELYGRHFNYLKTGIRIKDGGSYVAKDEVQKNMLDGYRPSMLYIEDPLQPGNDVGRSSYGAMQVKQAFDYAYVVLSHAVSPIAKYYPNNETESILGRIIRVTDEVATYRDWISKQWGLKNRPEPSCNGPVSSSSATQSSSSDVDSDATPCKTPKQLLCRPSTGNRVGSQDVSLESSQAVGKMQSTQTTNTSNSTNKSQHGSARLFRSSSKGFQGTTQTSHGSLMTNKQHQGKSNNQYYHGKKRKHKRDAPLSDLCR
Sequence of Terminal nucleotidyltransferase 4A (Homo sapiens) (Q5XG87 whole entry): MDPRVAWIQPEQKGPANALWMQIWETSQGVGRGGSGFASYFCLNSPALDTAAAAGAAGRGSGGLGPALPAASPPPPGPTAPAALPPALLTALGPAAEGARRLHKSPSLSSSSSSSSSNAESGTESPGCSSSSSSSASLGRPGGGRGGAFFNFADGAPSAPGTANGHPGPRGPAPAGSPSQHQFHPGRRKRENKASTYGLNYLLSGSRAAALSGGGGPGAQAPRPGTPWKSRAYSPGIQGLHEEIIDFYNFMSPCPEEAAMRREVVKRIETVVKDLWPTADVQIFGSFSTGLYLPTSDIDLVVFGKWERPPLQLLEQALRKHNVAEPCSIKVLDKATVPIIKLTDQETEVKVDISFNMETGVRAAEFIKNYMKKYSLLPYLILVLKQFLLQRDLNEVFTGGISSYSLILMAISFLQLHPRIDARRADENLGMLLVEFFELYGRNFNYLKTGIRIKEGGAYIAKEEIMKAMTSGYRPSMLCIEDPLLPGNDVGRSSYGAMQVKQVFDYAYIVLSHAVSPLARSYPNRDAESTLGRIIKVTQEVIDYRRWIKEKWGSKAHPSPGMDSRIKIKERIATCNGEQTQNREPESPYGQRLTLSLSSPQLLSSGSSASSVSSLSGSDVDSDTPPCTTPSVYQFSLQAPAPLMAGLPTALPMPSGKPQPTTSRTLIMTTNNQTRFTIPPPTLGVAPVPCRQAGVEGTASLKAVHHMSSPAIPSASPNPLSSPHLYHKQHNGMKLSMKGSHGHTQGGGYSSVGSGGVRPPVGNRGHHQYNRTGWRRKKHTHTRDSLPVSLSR

Row | pEC50 (Hepatitis B virus [1]) | logD at 1 h [3] | SMILES | CC50 at 96 h [2] | further results
1 | 6.42 |  | COc1cc2c(cc1OCCCCC(=O)O)C[C@@H](C(C)C)n1cc(C(=O)O)c(=O)cc1-2 | > 10000 nM | 
2 | 8.12 | 0.07 | COc1cc2c(cc1OCCCCCCCC(=O)O)C[C@@H](C(C)C)n1cc(C(=O)O)c(=O)cc1-2 | > 10000 nM | 
3 | 6.00 |  | COc1cc2c(cc1OCCCC(=O)O)C[C@@H](C(C)C)n1cc(C(=O)O)c(=O)cc1-2 | > 10000 nM | 
4 | 7.06 |  | COc1cc2c(cc1OCCCCCC(=O)O)C[C@@H](C(C)C)n1cc(C(=O)O)c(=O)cc1-2 | > 10000 nM | 
5 | 8.34 | 0.7 | COc1cc2c(cc1OCCCCCCCCC(=O)O)C[C@@H](C(C)C)n1cc(C(=O)O)c(=O)cc1-2 | > 10000 nM | 
6 | < 5.00 |  | COc1cc2c(cc1OCC(=O)O)C[C@@H](C(C)C)n1cc(C(=O)O)c(=O)cc1-2 | > 10000 nM | 
7 | 5.56 |  | COc1cc2c(cc1OCCCOCC(=O)O)C[C@@H](C(C)C)n1cc(C(=O)O)c(=O)cc1-2 | > 10000 nM | 
8 | 8.74 | 1.39 | COCCCOc1cc2c(cc1OC)-c1cc(=O)c(C(=O)O)cn1[C@H](C(C)C)C2 | > 10000 nM | Papp A→B at 2 h, 1 µM [4]: 9.17 ×10⁻⁶ cm/s; efflux ratio at 2 h, 1 µM [5]: 3.9; inhibition [6]: Dose-Dependent Effect; Papp B→A at 2 h, 1 µM [7]: 35.8 ×10⁻⁶ cm/s; Ratio [8]: 0.38; uptake ratio (OATP1B3): 0.56; uptake ratio (OATP1B1): 0.71; inhibition [9]: Dose-Dependent Effect; Ratio [10]: 0.42; Activity (Hepatitis B virus [11]): Active; Activity (Hepatitis B virus [12]): Active
